According to paper PMC11178805, “Ligand-based design of [^18F]OXD-2314 for PET imaging in non-Alzheimer’s disease tauopathies” (Nature Communications, 2024):
Where two headings read alike, the source gives them in different places.

Key:
[1] = molecular target: T1, 4R-tau aggregates in CBD tissue (Homo sapiens, UniProt P10636); test: Competition binding vs [^3H]OXD-2314 in CBD tissue
T1 construct: tissue Neurodegenerative Disease Brain Bank at UCSF; host or cells: human CBD brain, middle frontal gyrus (pool of three) or putamen (one subject)
T1 sequence (P10636 1-441 isoform P10636-8): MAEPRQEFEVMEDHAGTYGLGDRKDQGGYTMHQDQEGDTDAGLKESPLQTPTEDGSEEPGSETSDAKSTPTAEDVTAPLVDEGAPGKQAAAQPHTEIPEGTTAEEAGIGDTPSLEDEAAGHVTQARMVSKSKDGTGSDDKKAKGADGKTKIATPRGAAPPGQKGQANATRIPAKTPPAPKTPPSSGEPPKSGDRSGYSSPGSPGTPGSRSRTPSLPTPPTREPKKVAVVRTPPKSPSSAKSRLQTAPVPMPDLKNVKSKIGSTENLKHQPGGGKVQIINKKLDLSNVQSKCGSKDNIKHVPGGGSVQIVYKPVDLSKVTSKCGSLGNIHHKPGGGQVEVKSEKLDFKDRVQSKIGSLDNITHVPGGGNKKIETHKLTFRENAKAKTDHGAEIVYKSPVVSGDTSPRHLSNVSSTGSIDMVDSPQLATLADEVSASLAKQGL
Experimental: (§1) Fresh frozen, autopsy-confirmed human PD anterior cingulate cortex brain tissue blocks (1 cm^3) were obtained from Dr. Thomas Beach at Banner/Sun Health AZ with funding from the Michael J. Fox Foundation and contained frequent α-synuclein aggregates and no other detectable aggregated amyloid species. The frozen tissue blocks were prepared for the binding assays as previously described[47],[48], except that equal quantities of the homogenates of three AD brains (AD1-AD3, Table S1) were pooled, as were homogenates from three PSP brains (PSP1-PSP3), three CBD brains (CBD1-CBD3), three Pick’s brains (PiD1-PiD3), and 4 PD brains (PD1-PD4) in order to help minimize the inter-subject variability within the different neuropathological groups. Individual subcortical brain tissues from a PSP subject (PSP4) and a CBD subject (CBD4), as well as with the middle frontal cortex of a control subject, were prepared for the binding assays as previously described[47],[48].
(§2) The equilibrium inhibition constant (Ki) values of the unlabeled compounds were determined versus tritium-labeled radioligands using published methods.

[2] = molecular target: T2, 4R-tau aggregates in PSP tissue (Homo sapiens, UniProt P10636); test: Competition binding vs [^3H]OXD-2314 in PSP tissue
T2 construct: tissue Neurodegenerative Disease Brain Bank at UCSF
T2 sequence (P10636 1-441 isoform P10636-8): as above
Experimental: as §1, §2

[3] = molecular target: T3, 3R/4R-tau aggregates in AD tissue (Homo sapiens, UniProt P10636); test: Competition binding vs [^3H]OXD-2314 in AD tissue
Experimental: as §1, §2
Target sequence in this assay (P10636 623-758 limits assumed): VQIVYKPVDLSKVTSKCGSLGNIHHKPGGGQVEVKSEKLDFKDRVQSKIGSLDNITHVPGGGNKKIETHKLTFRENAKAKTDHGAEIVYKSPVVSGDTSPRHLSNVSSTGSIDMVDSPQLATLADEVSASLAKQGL

[4] = molecular target: T4, 3R-tau aggregates in PiD tissue (Homo sapiens, UniProt P10636); test: Competition binding vs [^3H]OXD-2314 in PiD tissue
T4 construct: tissue Neurodegenerative Disease Brain Bank at UCSF; host or cells: human PiD brain, middle frontal gyrus, pooled homogenate of three brains
T4 sequence (P10636 1-410 isoform P10636-5): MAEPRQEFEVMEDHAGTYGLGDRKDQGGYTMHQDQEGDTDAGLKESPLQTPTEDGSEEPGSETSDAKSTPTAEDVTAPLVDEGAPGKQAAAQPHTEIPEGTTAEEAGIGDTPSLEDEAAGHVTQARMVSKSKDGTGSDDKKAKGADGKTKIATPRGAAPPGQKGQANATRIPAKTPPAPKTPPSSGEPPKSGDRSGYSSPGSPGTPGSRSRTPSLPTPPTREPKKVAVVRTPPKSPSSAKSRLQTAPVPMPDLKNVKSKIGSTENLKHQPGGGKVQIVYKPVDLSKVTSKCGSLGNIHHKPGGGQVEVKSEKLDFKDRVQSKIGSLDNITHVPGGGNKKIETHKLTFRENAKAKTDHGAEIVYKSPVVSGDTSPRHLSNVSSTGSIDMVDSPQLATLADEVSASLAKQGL
Experimental: as §1, §2

[5] = molecular target: T3, 3R/4R-tau aggregates in AD tissue; test: Competition binding vs [^3H]OXD-2115 in AD tissue homogenates; conditions: vs [^3H]OXD-2115, AD tissue homogenates, n = 1
Experimental: as §1, §2
Target sequence in this assay (P10636 623-695 limits assumed): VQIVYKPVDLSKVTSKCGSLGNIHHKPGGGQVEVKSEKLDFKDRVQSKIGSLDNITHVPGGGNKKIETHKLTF

[6] = Mouse pharmacology (DMPK): plasma and brain concentrations, brain-to-plasma ratios after i.v. administration; format: in vivo, mice; conditions: mouse, brain, iv, mice, i.v., AUC brain:plasma
Experimental: Ex vivo evaluation of the BBB permeability of OXD-2314 was performed by measuring the brain-to-plasma ratios in mice. Compound concentrations in plasma (0.03 h, 0.17 h, 0.5 h, 1 h, and 2 h; n = 3 per timepoint) were compared with concentrations in brain (0.03 h, 0.17 h, 1 h, and 2 h; n = 3 per timepoint) for both OXD-2115 and OXD-2314. The total brain-to-plasma concentration ratios were 1.7 for OXD-2314 and 0.1 for OXD-2115. The free concentration ratio for brain-to-plasma was 0.6 for OXD-2314 and 0.002 for OXD-2115 (Figs. S3–S8 and Tables S2, S3).

[7] = molecular target: T2, 4R-tau aggregates in PSP tissue; test: Competition binding vs [^3H]OXD-2115 in PSP tissue homogenates; conditions: vs [^3H]OXD-2115, PSP tissue homogenates, n = 1
Experimental: as §1, §2

[8] = Baseline PET-CT imaging of [18F]OXD-2188 and [18F]OXD-2189 in rats; format: in vivo, rat; conditions: normal rats, n = 2
Experimental: In vitro characterization, radiosynthesis and rat PET imaging of [ 18F ]O X D -2188 and […]
In vitro characterization. Ki values for OXD-21188 and OXD-2189 vs. [3H]OXD- 2115 in PSP tissue was 29.8 nM and 13.7nM respectively.
Radiochemistry. [18F]OXD- 2188 and [18F]OXD- 2189 were radiolabeled using the same […]
radiochemical purity above 95%, molar activity of 60.1 and 58.4 GBq/μmol, respectively, and radiochemical yield of 9% (not decay- co rrected).
PET imaging. Three adul t rats (two females and o ne male) w ere used in b aseline PET imaging of [18F]OXD- 2188 and [18F]OXD- 2189 (16- 23 MBq injected, with the m ale rat being scanned twice on two consecutive d ays). […]
for both [18F]OXD- 2188 (n=2) and [18F]OXD- 2189 (n=2) with rapid clearance of radioactivity from the brain (Figure S1).
Figure S1. Structures of OXD-2188 and OXD-2189, time-activity curves and representative PET summation images […]

In the case of C#CCN(C)C(C)Cc1ccccc1 (stereo not drawn) [Deprenyl], the Ki ([1]; vs [^3H]OXD-2314, CBD tissue) is reported as 5000 nM, the Ki ([2]; vs [^3H]OXD-2314, PSP tissue) is reported as 3000 nM and the Ki ([3]; vs [^3H]OXD-2314, AD tissue) is reported as 2900 nM.

With Nc1c(F)ccc2cnc(-n3ccc4ccncc43)cc12 [MK-6240] the Ki [1] was 1700 nM, the Ki [2] was 5600 nM and the Ki [4] was 1000 nM. For the same compound, the Ki [3] was 1900 nM.

OCC1CCN(c2ccc(-c3cc4cc(O)ccc4[nH]3)c(F)n2)CC1 [OXD-2115] showed a Ki [1] of 30 nM, a Ki [5] of 20 nM and a Kp,uu (unbound brain-to-plasma ratio) ([6]; FREE, read-out: free concentration ratio brain-to-plasma) of 0.002. The Kp ([6]; TOTAL, read-out: total brain-to-plasma concentration ratio) was 0.1, the Ki [2] was 27 nM and the Ki [7] was 27 nM. It also gave a Ki [4] of 23 nM and a Ki [3] of 14 nM.

For Oc1ccc2[nH]c(-c3ccc(N4CCC[C@@H](O)C4)nc3F)cc2c1 [OXD-2188], the Ki [7] was 29.8 nM.

With Oc1ccc2[nH]c(-c3ccc(N4CCC[C@H](O)C4)nc3F)cc2c1 [OXD-2189] the Ki [7] was 13.7 nM.

Oc1ccc2[nH]c(-c3ccc(N4CCC(O)CC4)nc3F)cc2c1 [OXD-2310] gave a Ki [5] of 21 nM and a Ki [7] of 6.6 nM.

Oc1ccc2[nH]c(-c3ccc(N4CCCC(F)C4)nc3F)cc2c1 (stereo not drawn) [OXD-2312] gave a Ki [5] of 12 nM and a Ki [7] of 5.1 nM.

Work on Oc1ccc2[nH]c(-c3ccc(F)nc3N3CCCC(F)C3)cc2c1 (stereo not drawn) [OXD-2313] yielded a Ki [5] of 11 nM and a Ki [7] of 4.8 nM.

With Oc1ccc2[nH]c(-c3ccc(N4CCC(F)CC4)nc3F)cc2c1 [OXD-2317] the Ki [5] was 5.4 nM and the Ki [7] was 5.8 nM.

Work on CO[C@H]1CCCN(c2ncc(-c3cc4cc(O)ccc4[nH]3)c(F)n2)C1 [OXD-2331] yielded a Ki [5] of 7.4 nM and a Ki [7] of 6.3 nM.

NCCNC(=O)c1ncsc1-c1cccc(F)c1 [Ro41-1049] gave a Ki ([1]; vs [^3H]OXD-2314, CBD tissue) of over 10000 nM, a Ki ([2]; vs [^3H]OXD-2314, PSP tissue) of over 10000 nM and a Ki ([3]; vs [^3H]OXD-2314, AD tissue) of over 10000 nM.

In the case of Fc1ccc(-c2ccc3c(c2)[nH]c2ccncc23)cn1 [Tauvid], the Ki [1] is reported as over 10000 nM, the Ki [2] is reported as over 10000 nM and the Ki [4] is reported as 4400 nM. For the same compound, the Ki [3] was over 10000 nM.

For Oc1ccc2[nH]c(-c3ccc(N4CCC[C@@H](O)C4)nc3[18F])cc2c1 [[18F]OXD-2188], the initial brain uptake [8] was ~ 1.0 SUV.

With Oc1ccc2[nH]c(-c3ccc(N4CCC[C@H](O)C4)nc3[18F])cc2c1 [[18F]OXD-2189] the initial brain uptake [8] was ~ 1.0 SUV.
